Results: patent US20230310352A1, “NOVEL COMPOSITIONS AND METHODS FOR THE TREATMENT OF LUNG FIBROSIS” (LAURENT PHARMACEUTICALS INC., priority 2020, published 2023)

Legend:
[1] = test system: bleomycin-induced lung fibrosis; assay: Intratracheal bleomycin mouse model of pulmonary fibrosis (21-day model); format: in vivo, C57BL/6N mice; conditions: Day 21; oral once daily for 14 days; fenretinide 10 mg/kg (as LAU-7b SDI), pirfenidone 100 mg/kg
Method: Oral administration of a solid amorphous dispersion formulation of fenretinide (LAU-7b SDI) was evaluated in treating and/or reducing pulmonary fibrosis in mouse model of lung fibrosis induced via a single intratracheal administration of bleomycin followed by vehicle, fenretinide (LAU-7b SDI) or pirfenidone oral treatment for 21 days. The LAU-7b SDI formulation was obtained by spray drying and contains fenretinide in amorphous form in a solid dispersion comprising a matrix polymer, based on the following formula: 40% fenretinide, 59.6% povidone (KOLLIDON® 30), 0.24% butylated hydroxyanisole (BHA) and 0.16% butylated hydroxytoluene (BHT).
Male C57BL/6N mice from Charles River Laboratories, 10-12 weeks of age, weighing around 20-25 g, at the time of their enrolment, received 50 μL of bleomycin sulfate (2.0 mg/kg) by a single intratracheal instillation on Day 1 of the study. The Sham group received an equivalent volume of 0.9% saline. On Day 7 post-bleomycin instillation the animals were randomized in groups of 8 animals based on their body weight loss and Penh value. Oral dosing by gavage (10 mL/kg) with the vehicle (sham and BLM Control groups), LAU-7b SDI (fenretinide at 5 mg/kg and 10 mg/kg dose), and the reference compound (pirfenidone 100 mg/kg) were initiated once daily starting from Day 7 to Day 21. Two hours following the last dose on Day 21 all the mice were sacrificed, the lungs of each mouse were harvested, flushed with 0.9% NaCl and inflated with 10% neutral buffered formalin solution. After embedding and mounting of the lung tissue (transversal slices of 5 μm thickness), the histology slides were stained with hematoxylin/eosin for the Ashcroft score evaluation by a treatment-blinded pathologist, and with Sirius red staining for automated fibrosis quantification (Biocellvia, France).
As in Example 4, the key endpoints evaluated in this study were the Ashcroft score, pulmonary foci and collagen content obtained by histological assessment of the lung tissue at the end of the study. Statistical analysis was made on normally distributed data by one-way ANOVA followed by multiple comparisons (Fisher's LSD post hoc test) to assess the difference between the groups, using Graph Pad Prism Software version 8.0 (San Diego, CA, USA). Differences were considered statistically significant when P values were p<0.05 (*), or p<0.01 (**) or p<0.001 (***). The Ashcroft score was assessed in the lung tissue by treatment-blinded pathologist on the H&E stained histology slides (2 cross sections/animal) and using the modified Ashcroft scale. Briefly, each lung section was scanned at a magnification of ×100 (H&E staining), and graded from 0 (normal lung) to 8 (total fibrotic obliteration of the field). The mean value of the grades obtained for each of the two sections was used as the Ashcroft score.
Pulmonary foci (fibrotic tissue) and lung collagen content were quantified in the Sirius red stained lung tissue histology sections by high resolution, automated digital image analysis (Biocellvia, France) on Day 21 after lung fibrosis induction by bleomycin (BLM) instillation and following a 14-day oral gavage treatment with LAU-7b SDI (fenretinide, two doses), pirfenidone (reference drug) or vehicle only. Full field analysis of 2 lung sections per animal was conducted and the results were expressed as a mean percentage of total surface. This test is considered highly reliable, offering reproducible and observer-independent assessment of quantitative analysis of fibrosis.

[2] = test system: bleomycin-induced lung fibrosis; assay: Intratracheal bleomycin mouse model of pulmonary fibrosis (28-day model); format: in vivo, C57BL/6N mice; conditions: Day 28; oral once daily Day 7 to Day 28; fenretinide 10 mg/kg (as LAU-7b SDI), pirfenidone 100 mg/kg
Source text: Oral administration of a solid, amorphous dispersion formulation of fenretinide (LAU-7b SDI) was provided as a treatment for reduction of pulmonary fibrosis, in a mouse model of lung fibrosis induced via a single intratracheal administration of bleomycin, for 21 days. The LAU-7b SDI formulation was obtained by spray drying and contains fenretinide in amorphous form in a solid dispersion comprising a matrix polymer, based on the following formula: 40% fenretinide, 59.6% povidone (KOLLIDON® 30), 0.24% butylated hydroxyanisole (BHA) and 0.16% butylated hydroxytoluene (BHT).
Male C57BL/6N mice from Charles River Laboratories, 10-12 weeks of age, weighing around 20-25 g, at the time of their enrolment, received 50 μL of bleomycin sulfate (2.0 mg/kg) by a single intratracheal instillation on Day 1 of the study to induce lung fibrosis. The sham group received an equivalent volume of 0.9% saline. On Day 7 postbleomycin instillation, the animals were randomized in groups of animals based on their body weight loss and enhanced pause airway resistance estimate (PenH value), while the sham group had 6 mice. Oral dosing by gavage (10 mL/kg) with the vehicle (sham and BLM control groups), the test articles (fenretinide 10 mg/kg), and the reference compound (pirfenidone 100 mg/kg) were administered once daily starting from Day 7 to Day 28. Two hours following the last dose on Day 28, all mice were sacrificed, the lungs of each mouse harvested, flushed with 0.9% NaCl and inflated with 10% neutral buffered formalin solution. After embedding and mounting of the lung tissue (transversal slices of 5 μm thickness), the histology slides were stained with hematoxylin/eosin for the Ashcroft score evaluation by a treatment-blinded pathologist and with Sirius red staining for automated fibrosis quantification (Biocelvia, France).
The key endpoints evaluated in this study were Ashcroft score, pulmonary foci and collagen content obtained by histological assessment of the lung tissue at the end of the study. Statistical analysis was made on normally distributed data by one-way ANOVA followed by multiple comparisons (Fisher's LSD post hoc test) to assess the difference between the groups, using Graph Pad Prism Software version 8.0 (San Diego, CA, USA). Differences were considered statistically significant when P values were p<0.05 (*), or p<0.01 (**) or p<0.001 (***).
Ashcroft scale for the evaluation of bleomycin-induced lung fibrosis is the analysis of stained histological samples by visual assessment. The Ashcroft score was assessed in lung tissue collected on Day 28 by treatment-blinded pathologist on H&E stained lung tissue histology slides (3 cross sections/animal) and using the modified Ashcroft scale. Briefly, each lung section was scanned at a magnification of x100 (H&E staining), read by a blinded examiner, and graded from 0 (normal lung) to 8 (total fibrotic obliteration of the field). Criteria for grading lung fibrosis in Ashcroft scale are as follows: Grade 0=normal lung; Grade 1=minimal fibrous thickening of alveolar or bronchiolar walls; Grade 3=moderate thickening of walls without obvious damage to lung architecture; Grade 5=increased fibrosis with definitive damage to lung structure and formation of fibrous bands or small fibrous masses; Grade 7=severe distortion of structure and large fibrous area; Grade 8=total fibrous obliteration of lung fields. The mean value of the grades obtained for each of the three sections was used as the Ashcroft score. Ashcroft score, using the modified scale, is a reliable and reproducible method of visual quantification of bleomycin induced lung fibrosis in H&E stained histological lung sections based on description of the general morphology of alveolar septa and lung structure. […]

Cc1ccc(=O)n(-c2ccccc2)c1 [pirfenidone]
Ashcroft score vs BLM control [1]: reduced significantly | percentage of collagen content, automated Sirius red analysis, vs BLM control [1]: did not induce statistically significant reduction | percentage of pulmonary foci, automated Sirius red analysis, vs BLM control [1]: did not induce statistically significant reduction | Ashcroft score vs BLM control [2]: did not induce significant improvement | percentage of collagen content in lung tissue, automated Sirius red analysis, vs BLM control [2]: significantly reduced | percentage of pulmonary foci (fibrotic tissue), automated Sirius red analysis, vs BLM control [2]: nonsignificant effect
